One data set deals with melanoma cell line A375. The data set is described as follows: THP-1-mediated phagocytic activity against A375 (Example 2). To be noted: cells cultured 2 days with drug at 50 nM, then anti-CAPRIN-1 humanized antibody #1 5 μg/mL, FIG. 1. In kind it is cell-based, human. The method, then:
(§1) Specifically, in each combination test group (a trametinib combination test group, a fluorouracil combination test group and an irinotecan combination test group), the indicated drug used in combination was applied to human cancer cells, and then the cancer cells were cocultured with human monocytic cells (THP-1) in the presence of the anti-CAPRIN-1 antibody, and the antibody-mediated phagocytic activity against the cancer cells by THP-1 was evaluated. The human-derived cancer cells used were melanoma cell line A375 (used only in the trametinib combination test group), colon cancer cell line HCT116, prostate cancer cell line DU145 (used only in the trametinib combination test group), and lung cancer cell line A549 (used only in the trametinib combination test group). […]
(§2) Each cancer cell line after the culture was dissociated with TrypLE Express (Thermo), and the cancer cells were stained by the addition of calcein-AM at a final concentration of 0.02 μg/mL and incubation at 37° C. for 30 minutes. […] Further, dead cells were stained with propidium iodide (PI) (final concentration: 0.1 μg/mL), followed by the measurement of fluorescence from the cells by flow cytometry. […] Thus, the phagocytic activity in this evaluation system was calculated as the ratio (%) of APC-positive/calcein-AM-positive cells to the whole calcein-AM-positive population.

Data set [1] relates to colon cancer cell line HCT116. The data set is described as follows: THP-1-mediated phagocytic activity against HCT116 (Example 2). Format: cell-based, human. As to conditions: cells cultured 2 days with drug at 50 nM, then anti-CAPRIN-1 humanized antibody #1 5 μg/mL, FIG. 1, 2. The method, then: as §1, with “group). On a 6-well plate, the human-derived cancer cells were cultured for 2 days in the presence of trametinib for the trametinib combination test group, and cultured for 2 days in the presence of the each drug used in combination for the fluorouracil combination test group and the irinotecan combination test group. The concentration of the drug used in combination was set to a concentration that decreased the proliferation rate of the cancer cells by about half at the completion of culture.” for “group).”
as §2

Data set [2] relates to prostate cancer cell line DU145. Nature of the data set: THP-1-mediated phagocytic activity against DU145 (Example 2). To be noted: cells cultured 2 days with drug at 250 nM, then anti-CAPRIN-1 humanized antibody #1 5 μg/mL, FIG. 1. Format: cell-based, human. The method, then: as §1, §2
In data set [3] the test system is lung cancer cell line A549. Nature of the data set: THP-1-mediated phagocytic activity against A549 (Example 2). In kind it is cell-based, human. As to conditions: cells cultured 2 days with drug at 250 nM, then anti-CAPRIN-1 humanized antibody #1 5 μg/mL, FIG. 1. As for the experimental part:
as §1, §2

For data set [4] the following is noted: trametinib in itself (therefore also used as DMSO solvate); cited from earlier work.

Take `CC(=O)Nc1cccc(-n2c(=O)n(C3CC3)c(=O)c3c(Nc4ccc(I)cc4F)n(C)c(=O)c(C)c32)c1` [trametinib, N-[3-[3-cyclopropyl-5-(2-fluoro-4-iodoanilino)-6,8-dimethyl-2,4,7-trioxopyrido[4,3-d]pyrimidin-1-yl]phenyl]acetamide]: the “phagocytic activity against cancer cells” value in the data set on melanoma cell line A375 came out at 49%; in data set [1], 45%; in data set [2], 9%; in data set [3] it was 7%. Further, the solubility result in data set [4] was “poorly soluble”.
